Earlier results on eight compounds are cited in patent US20110143366A1, “PROTEIN BIOMARKERS FOR IN VITRO TESTING OF DEVELOPMENTAL TOXICITY AND ENBRYOTOXICITY OF CHEMICAL SUBSTANCES” (PROTEOSYS AG, priority 2008, published 2011).

This series deals with Cardiomyocytes differentiated from murine embryonic stem cells (EST model). The conditions noted are these: substances with known embryotoxic potency used in the EST model.
For `CC(C)(S)[C@@H](N)C(=O)O` [D-penicillamine], the “Embryotoxicity class of the substance” value is reported as “non-embryotoxic”. In the case of `CC[C@H](C)C(=O)O[C@H]1C[C@@H](C)C=C2C=C[C@H](C)[C@H](CC[C@@H]3C[C@@H](O)CC(=O)O3)[C@H]21` [Lovastatin], the “Embryotoxicity class of the substance” value was “highly embryotoxic”. `O=[N+]([O-])c1ccc(Oc2ccc(Cl)cc2Cl)cc1` [Nitrofen]: the “Embryotoxicity class of the substance” value is given as “highly embryotoxic”. As for `C[C@@H]1Cc2c(Cl)cc(C(=O)N[C@@H](Cc3ccccc3)C(=O)O)c(O)c2C(=O)O1` [Ochratoxin, Ochratoxin-A], the “Embryotoxicity class of the substance” value was “highly embryotoxic”. On to `CN(C)CCOC(C)(c1ccccc1)c1ccccn1` (centres unmarked) [doxylamine], for which the “Embryotoxicity class of the substance” value was “non-embryotoxic”. For the compound `CCN(CC)CCNC(=O)c1cc(Cl)c(N)cc1OC` [metoclopramide], the “Embryotoxicity class of the substance” value was “non-embryotoxic”. For the compound `CC[C@H](C)C(=O)O[C@H]1C[C@H](O)C=C2C=C[C@H](C)[C@H](CC[C@@H](O)C[C@@H](O)CC(=O)O)[C@H]21` [pravastatin], the “Embryotoxicity class of the substance” value is “moderately embryotoxic”. For `N#CCCN` [β-aminoproprionitril], the “Embryotoxicity class of the substance” value is recorded as “non-embryotoxic”.
